Assay results as given in BindingDB's records for patent US20250122221 (Nanjing Zaiming Pharmaceutical, 2025).

Biological target: DNA polymerase theta (Homo sapiens, UniProt O75417)
Assay: POLQ Enzyme Activity Inhibition Assay
Description: The compounds to be tested were diluted to different concentrations in dimethyl sulfoxide (DMSO) using the Echo 650 pipetting system, and transferred to a 384-well plate, 20 μL/well of 100 nM POLQ was added, and the mixture was incubated at room temperature for 15 minutes. […] 20 μL/well of reaction mixture solution was added to start the enzyme reaction. […] The concentration range was from 10 μM to 0.0005 μM, and the final concentration of DMSO in the system was 0.2% v/v. The 384-well plate was reacted at room temperature for 20 minutes, and then the OD value at 340 nm was read with an Envision microplate reader.

DNA polymerase theta, sequence (O75417 whole entry): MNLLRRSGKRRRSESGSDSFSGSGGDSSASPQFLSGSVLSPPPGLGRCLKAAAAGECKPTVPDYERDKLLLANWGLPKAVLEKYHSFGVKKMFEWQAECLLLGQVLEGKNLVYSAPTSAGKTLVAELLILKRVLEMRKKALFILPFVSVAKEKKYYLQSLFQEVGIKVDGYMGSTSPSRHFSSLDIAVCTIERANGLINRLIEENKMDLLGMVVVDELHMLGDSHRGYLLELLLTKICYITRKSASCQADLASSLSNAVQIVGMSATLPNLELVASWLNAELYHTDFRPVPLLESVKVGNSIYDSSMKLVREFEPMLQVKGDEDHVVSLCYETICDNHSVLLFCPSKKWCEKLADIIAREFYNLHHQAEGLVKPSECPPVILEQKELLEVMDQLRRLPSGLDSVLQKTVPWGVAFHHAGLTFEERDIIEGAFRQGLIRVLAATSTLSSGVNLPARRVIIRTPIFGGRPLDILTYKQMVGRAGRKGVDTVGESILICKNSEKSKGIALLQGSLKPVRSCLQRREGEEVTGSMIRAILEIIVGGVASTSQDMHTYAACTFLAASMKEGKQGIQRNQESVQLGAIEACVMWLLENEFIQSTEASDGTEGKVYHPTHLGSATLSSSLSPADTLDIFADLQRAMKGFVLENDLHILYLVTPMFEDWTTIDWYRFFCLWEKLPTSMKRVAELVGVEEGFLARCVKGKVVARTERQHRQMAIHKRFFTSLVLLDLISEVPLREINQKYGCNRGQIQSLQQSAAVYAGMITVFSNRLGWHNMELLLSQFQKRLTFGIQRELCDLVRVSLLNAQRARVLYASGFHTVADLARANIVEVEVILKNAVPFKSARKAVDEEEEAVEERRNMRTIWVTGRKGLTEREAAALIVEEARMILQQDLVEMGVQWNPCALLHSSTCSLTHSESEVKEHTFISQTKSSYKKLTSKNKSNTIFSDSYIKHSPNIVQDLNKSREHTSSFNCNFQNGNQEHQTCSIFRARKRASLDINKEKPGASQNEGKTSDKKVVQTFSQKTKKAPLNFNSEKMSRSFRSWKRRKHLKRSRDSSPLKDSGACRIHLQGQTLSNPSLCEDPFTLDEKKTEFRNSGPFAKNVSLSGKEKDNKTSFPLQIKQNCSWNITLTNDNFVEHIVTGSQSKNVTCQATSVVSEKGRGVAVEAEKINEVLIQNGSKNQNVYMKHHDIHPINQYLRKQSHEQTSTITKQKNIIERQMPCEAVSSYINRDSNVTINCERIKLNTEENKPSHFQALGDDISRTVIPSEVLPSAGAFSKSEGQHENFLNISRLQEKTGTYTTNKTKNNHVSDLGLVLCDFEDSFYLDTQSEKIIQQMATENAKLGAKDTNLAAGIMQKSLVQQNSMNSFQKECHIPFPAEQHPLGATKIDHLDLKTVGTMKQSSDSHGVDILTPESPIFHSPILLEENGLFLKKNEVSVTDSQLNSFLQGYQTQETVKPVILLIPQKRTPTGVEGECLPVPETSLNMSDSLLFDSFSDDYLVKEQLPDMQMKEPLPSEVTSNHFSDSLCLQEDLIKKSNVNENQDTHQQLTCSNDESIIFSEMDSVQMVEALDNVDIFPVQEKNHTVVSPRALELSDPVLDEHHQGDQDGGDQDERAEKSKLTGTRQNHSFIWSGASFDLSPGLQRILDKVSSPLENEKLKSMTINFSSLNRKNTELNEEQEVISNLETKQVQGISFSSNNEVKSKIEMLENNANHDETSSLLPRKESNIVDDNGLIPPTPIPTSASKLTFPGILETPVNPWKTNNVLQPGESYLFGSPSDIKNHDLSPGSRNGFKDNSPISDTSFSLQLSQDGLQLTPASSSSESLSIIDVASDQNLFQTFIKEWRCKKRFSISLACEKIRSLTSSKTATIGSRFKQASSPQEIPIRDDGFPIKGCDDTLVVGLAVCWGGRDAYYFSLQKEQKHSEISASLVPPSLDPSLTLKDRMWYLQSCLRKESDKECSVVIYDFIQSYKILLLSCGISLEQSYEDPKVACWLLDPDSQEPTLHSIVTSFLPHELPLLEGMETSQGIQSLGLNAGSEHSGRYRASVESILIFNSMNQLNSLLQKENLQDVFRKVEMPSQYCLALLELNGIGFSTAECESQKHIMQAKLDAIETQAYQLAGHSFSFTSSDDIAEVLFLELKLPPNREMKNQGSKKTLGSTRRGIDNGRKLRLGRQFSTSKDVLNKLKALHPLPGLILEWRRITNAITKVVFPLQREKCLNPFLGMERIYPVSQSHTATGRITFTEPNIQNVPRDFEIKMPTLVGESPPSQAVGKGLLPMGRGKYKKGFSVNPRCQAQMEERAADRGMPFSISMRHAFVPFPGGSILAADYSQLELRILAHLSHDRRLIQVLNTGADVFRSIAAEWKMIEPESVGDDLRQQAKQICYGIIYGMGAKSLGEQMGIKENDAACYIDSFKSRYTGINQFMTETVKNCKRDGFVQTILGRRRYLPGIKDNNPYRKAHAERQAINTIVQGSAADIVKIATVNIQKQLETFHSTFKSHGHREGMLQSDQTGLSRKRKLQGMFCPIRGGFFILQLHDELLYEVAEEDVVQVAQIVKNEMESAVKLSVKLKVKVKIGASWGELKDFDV

IC50: < 0.1 µM
SMILES: COc1ccccc1-c1cc2c(cc1C(=O)Nc1nc3ncc(-c4ccc(C#N)cc4)nc3s1)OCO2 [US20250122221, Compound 56]
